For 3 molecules, Ki and inhibition results are on record in US7868022B2, “2-amino-quinoline derivatives useful as inhibitors of β-secretase (BACE)” (Janssen Pharmaceutica NV, priority 2006, dated 2011).

By Ki is commonly meant the equilibrium dissociation constant of an inhibitor or competing ligand from its target. Read a high Ki as a looser hold on the target. Broadly, the inhibition is the relative decrease from the control value, in per cent.

In the first test the target is T1, β-secretase (BACE) (Homo sapiens, UniProt P56817).
T1 construct: purchased Panvera
T1 sequence (P56817 46-501): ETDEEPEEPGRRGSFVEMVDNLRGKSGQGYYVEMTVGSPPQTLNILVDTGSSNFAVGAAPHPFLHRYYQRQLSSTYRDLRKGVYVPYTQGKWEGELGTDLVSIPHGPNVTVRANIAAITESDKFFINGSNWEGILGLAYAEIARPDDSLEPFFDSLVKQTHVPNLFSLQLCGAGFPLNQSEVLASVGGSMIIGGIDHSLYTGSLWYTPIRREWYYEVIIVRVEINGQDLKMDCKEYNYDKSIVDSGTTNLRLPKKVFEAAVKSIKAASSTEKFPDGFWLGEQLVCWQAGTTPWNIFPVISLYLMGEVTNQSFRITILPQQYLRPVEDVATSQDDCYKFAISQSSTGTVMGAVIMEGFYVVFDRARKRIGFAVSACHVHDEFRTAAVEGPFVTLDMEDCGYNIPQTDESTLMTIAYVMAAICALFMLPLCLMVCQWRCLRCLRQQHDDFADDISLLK
Nature of the test: In Vitro BACE Assay, Ki (Example 16). As to conditions: FS1 substrate, pH5. Type of test: biochemical. Here is the method: (§1) The following reagents were used in this assay: sodium acetate, PEG8000 (Sigma), DMSO, HEPES, FS1 substrate [R(AedensE)[…]-(DabcylK)R], β-secretase (BACE) (Panvera), and 96-well plate (HE microplate, Molecular Devices).
(§2) The following assay buffers were prepared and used in this assay: (1) enzyme assay buffer (0.05 M sodium acetate, pH5, 0.1% PEG8000 (w/v)), (2) substrate assay buffer (0.05 M sodium acetate, pH5), and (3) compound vehicle (30% DMSO in 50 mM HEPES, pH 7.4).
(§3) The FS1-substrate stock solution was prepared in DMSO as a 10 mg/mL solution. The FS1-substrate working solution was prepared by diluting the 10 mg/mL stock solution with substrate assay buffer to a final concentration of 300 μg/mL. The β-secretase (BACE) working solution was prepared by diluting a 0.83 mg/mL BACE stock solution with enzyme assay buffer to a final concentration of 4 μg/mL.
Test compounds were dissolved in DMSO at 10 mM.
The procedure for this assay was as follows: 15 μL of BACE working solution was pipetted into each well of a 96-well plate. To each well was then pipetted 2 μL of test compound at the selected concentration. Test compound and BACE were then mixed with a pipettor and incubated for 20 min at room temperature. […] The fluorescence for each well was then measured on a Polarstar fluorometer (Ex 390 nm/Em 520 nm) for 20 min at room temperature, reading fluorescence at 1 min intervals.
The procedure for the positive control was as follows: 15 μL of BACE working solution was pipetted into each well to be used as a positive control. […] The fluorescence was then measured on a Polarstar fluorometer (Ex 390 nm/Em 520 nm) for 20 min at room temperature, reading fluorescence at 1 min intervals.
For test compounds, Ki inhibition was determined as follows: For each compound concentration and positive control, rate of cleavage of substrate (Vi, where i=compound concentration in μM) was determined as Δ Fluorescence/Δ time (min). […] The Ki was then determined by fitting the following equation to the graph of [I] vs Vi Y=aVmax/(50+24*(1+X/Ki)),
`Nc1nc2ccc(Oc3ccccc3)cc2cc1C(CCC(=O)NC1C2CC3CC(C2)CC1C3)C1CCCCC1` (stereo not drawn) [compound 15] returned a Ki of 280 nM.

Consider `Nc1nc2ccc(Oc3ccccc3)cc2cc1C(CCC(=O)NC1C2CC3CC(C2)CC1C3)C1CCOCC1` (stereo not drawn) [compound 24], for which the inhibitory constant (Ki) is 66 nM.

Molecule `Nc1nc2ccc(Oc3ccccc3)cc2cc1CCC(=O)NC1C2CC3CC(C2)CC1C3` (stereo not drawn) [compound 2] came in with an inhibitory constant (Ki) of 230 nM.

The target of another test is T1, β-secretase (BACE). Nature of the test: In Vitro BACE FS1 % Inhibition Assay (Example 15). The test is classed as biochemical. As to conditions: 0.3 μM compound; FS1 substrate. Here is the method:
as §1, §2, §3
Test compounds were dissolved in DMSO to 10 mM. Compounds were further diluted in vehicle to various concentrations in the range of 405 μM to 4.05 μM (13.5× final compound concentration in screening plate).
The screening procedure for this assay was as follows: 15 μL of BACE working solution was pipetted into each well of a 96-well plate. To each well was then pipetted 2 μL of test compound at the selected concentration. Test compound and BACE were then mixed with a pipettor and incubated for 20 min at room temperature. To each well was then added 10 μL of the FS1 substrate working solution. The plates were then incubated for 1 hour at room temperature. The fluorescence for each well was then measured on an LJL analyst (Ex 360 nm/Em 530 nm).
The procedure for the blank (negative control) was as follows. 15 μL of assay buffer was pipetted into each well to be used as a blank control. To each well was then added 2 μL of vehicle and 10 μL of FS1-substrate working solution. The plates were then incubated for 1 hour at room temperature. The fluorescence was measured on an LJL analyst (Ex 360 nm/Em 530 nm).
The procedure for the positive control was as follows: 15 μL of BACE working solution was pipetted into each well to be used as a positive control. To each well was then pipetted 2 μL of vehicle. Vehicle and BACE were then mixed with a pipettor and incubated for 20 min at room temperature. To each well was then added 10 μL of the FS1 substrate working solution. The plates were then incubated for 1 hour at room temperature. The fluorescence (Fl) was then measured on an LJL analyst (Ex 360 nm/Em 530 nm).
For test compounds, % inhibition was determined at each concentration as follows:
% Inhibition values of less than 30% were indistinguishable from control and are listed as ≦30% in the Table below. % Inhibition values greater than 100% were indistinguishable from 100% within the error of the measurement.
With `Nc1nc2ccc(Oc3ccccc3)cc2cc1C(CCC(=O)NC1C2CC3CC(C2)CC1C3)C1CCCCC1` (stereo not drawn) [compound 15], the inhibition at 0.3 µM turned out to be 43%.

With `Nc1nc2ccc(Oc3ccccc3)cc2cc1C(CCC(=O)NC1C2CC3CC(C2)CC1C3)C1CCOCC1` (stereo not drawn) [compound 24], the inhibition at 0.3 µM stood at 56%.

On to `Nc1nc2ccc(Oc3ccccc3)cc2cc1CCC(=O)NC1C2CC3CC(C2)CC1C3` (stereo not drawn) [compound 2], for which the inhibition at 0.3 µM turned out to be 45%.

The same test, now with this note: 1 μM compound; FS1 substrate.
As for `Nc1nc2ccc(Oc3ccccc3)cc2cc1C(CCC(=O)NC1C2CC3CC(C2)CC1C3)C1CCCCC1` (stereo not drawn) [compound 15], the inhibition at 1 µM was 58%.

Turning to `Nc1nc2ccc(Oc3ccccc3)cc2cc1C(CCC(=O)NC1C2CC3CC(C2)CC1C3)C1CCOCC1` (stereo not drawn) [compound 24], the inhibition at 1 µM is 103%.

Consider `Nc1nc2ccc(Oc3ccccc3)cc2cc1CCC(=O)NC1C2CC3CC(C2)CC1C3` (stereo not drawn) [compound 2], for which the inhibition at 1 µM amounted to 78%.

Staying with this test, now noted: 3 μM compound; FS1 substrate.
For the molecule `Nc1nc2ccc(Oc3ccccc3)cc2cc1C(CCC(=O)NC1C2CC3CC(C2)CC1C3)C1CCCCC1` (stereo not drawn) [compound 15], the inhibition at 3 µM amounted to 78%.

In the case of `Nc1nc2ccc(Oc3ccccc3)cc2cc1C(CCC(=O)NC1C2CC3CC(C2)CC1C3)C1CCOCC1` (stereo not drawn) [compound 24], the inhibition at 3 µM stood at 132%.

As to `Nc1nc2ccc(Oc3ccccc3)cc2cc1CCC(=O)NC1C2CC3CC(C2)CC1C3` (stereo not drawn) [compound 2], the inhibition at 3 µM amounted to 107%.
